The record followed here is patent US20160022875A1, “BONE SUBSTITUTES GRAFTED BY MIMETIC PEPTIDES OF HUMAN BMP 2 PROTEIN” (TEKNIMED, priority 2013, published 2016).

For this assay, the system named is Runx2 gene. As to the kind of experiment: Runx2 expression by RT-PCR as a function of density of peptide P1 grafted on a PET model support. The class given is cell-based. Conditions: P1 grafted on PET at 0.4, 1.2 and 4.3 pmol/mm^2. The procedure: The peptide P1 was covalently grafted onto a model support, at three different densities. The support is made of polyethylene terephthalate (PET). The densities are 0.4 pmol/mm^2, 1.2 pmol/mm^2 and 4.3 pmol/mm^2. The expression level of the Runx2 factor by RT-PCR as a function of the density of the peptide P1 grafted at the surface of a model support was measured for these three densities (FIG. 13). The best expression level of the Runx2 gene is obtained for 1.2 pmol/mm^2 of peptide density, which corresponds to a maximum cell differentiation activity for the model support.
The activity obtained is also stable over time (after 1 week of culture): at 96 h of culture, a continuous increase in the expression of the Runx2 factor (approximately 42%) is observed.

Consider CKIPKASSVPTELSAISMLYL [P1], for which the “peptide density giving the best expression level of the Runx2 gene” value was 1.2 pmol/mm^2.
